Laboratory results from ChEMBL document CHEMBL3871282, “Neo-tanshinlactone D-ring modified novel analogues induce apoptosis in human breast cancer cell via DNA damage” (Bioorg Med Chem, 2017).
Calls of active or inactive are those of the source. No cut-off for these calls is given here.

How the values were obtained:
[1] = (§1) Cytotoxicity against human MCF7 ER positive, PR positive/negative,HER2 negative cells assessed as cell growth inhibition after 24 hrs by MTT assay; assay type: functional, cell-based; conditions: MCF7, 24 h
MCF7 [2] = experiment: as §1; assay type: functional, cell-based
[3] = Cytotoxicity against human SKBR3 ER negative, PR negative,HER2 positive cells assessed as cell growth inhibition after 24 hrs by MTT assay; assay type: functional, cell-based; conditions: SK-BR-3, 24 h
[4] = Cytotoxicity against human MDA-MB-231 ER negative, PR negative,HER2 negative cells assessed as cell growth inhibition after 24 hrs by MTT assay; assay type: functional, cell-based; conditions: MDA-MB-231, 24 h
[5] = Cytotoxicity against human HCT116 cells assessed as cell growth inhibition after 24 hrs by MTT assay; assay type: functional, cell-based; conditions: HCT-116, 24 h
[6] = Cytotoxicity against human HeLa cells assessed as cell growth inhibition after 24 hrs by MTT assay; assay type: functional, cell-based
[7] = Cytotoxicity against human WI38 cells assessed as cell growth inhibition after 24 hrs by MTT assay; assay type: toxicity, cell-based, WI-38
[8] = Cytotoxicity against human HaCaT cells assessed as cell growth inhibition after 24 hrs by MTT assay; assay type: toxicity, cell-based
Bos taurus [9] = species on record: Bos taurus; experiment: Binding affinity to calf thymus DNA assessed as decrease in […] at 50 uM measured at 260 nm by UV-Vis spectrophotometric analysis
Bos taurus [10] = species on record: Bos taurus; experiment: Binding affinity to calf thymus DNA assessed hyperchromic shift at 260 nm up to 1:1 compound to DNA ratio measured by UV-Vis spectrophotometric analysis
MCF7 [11] = experiment: Antiproliferative activity against human MCF7 cells assessed as reduction in colony formation at 8 to 16 nM after 21 days by crystal violet staining based clonogenic assay; assay type: functional, cell-based
MCF7 [12] = experiment: Binding affinity to DNA in human MCF7 cells assessed as formation of DNA double strand breaks after 24 hrs by alkaline comet assay; assay type: cell-based
MCF7 [13] = experiment: Induction of DNA double strand breaks in human MCF7 cells assessed as increase in H2AX to gamma-H2AX ratio after 24 hrs by Western blot analysis; assay type: cell-based
MCF7 [14] = experiment: Induction of DNA double strand breaks in human MCF7 cells assessed as increase in H2AX to gamma-H2AX ratio at near IC50 after 24 hrs by Western blot analysis relative to control; assay type: cell-based
MCF7 [15] = experiment: Induction of DNA double strand breaks in human MCF7 cells assessed as increase in H2AX to gamma-H2AX ratio at near IC50 after 24 hrs by DAPI staining-based immunocytochemistry analysis relative to control; assay type: cell-based
MCF7 [16] = experiment: Induction of DNA double strand breaks in human MCF7 cells assessed as increase in apoptotic nuclei after 24 hrs by TUNEL assay; assay type: cell-based
MCF7 [17] = experiment: Disruption of mitochondrial membrane potential in human MCF7 cells assessed as decrease in red/green fluorescence ratio at 8 to 16 nM after 24 hrs by JC1-staining based fluorescent microscopic analysis; assay type: functional, cell-based
MCF7 [18] = experiment: Induction of apoptosis in human MCF7 cells assessed as early apoptotic cells at 8 nM after 24 hrs by Annexin V-FITC/propidium iodide-dual staining based FACS analysis (reference value: 2.3%); assay type: functional
MCF7 [19] = experiment: Induction of apoptosis in human MCF7 cells assessed as late apoptotic cells at 8 nM after 24 hrs by Annexin V-FITC/propidium iodide-dual staining based FACS analysis (reference value: 0.1%); assay type: functional
MCF7 [20] = experiment: Induction of apoptosis in human MCF7 cells assessed as early apoptotic cells at 12 nM after 24 hrs by Annexin V-FITC/propidium iodide-dual staining based FACS analysis (reference value: 2.3%); assay type: functional
MCF7 [21] = experiment: Induction of apoptosis in human MCF7 cells assessed as late apoptotic cells at 16 nM after 24 hrs by Annexin V-FITC/propidium iodide-dual staining based FACS analysis (reference value: 0.1%); assay type: functional
MCF7 [22] = experiment: Induction of DNA double strand breaks in human MCF7 cells assessed as activation of phosphorylated p53 at ser15 residue after 24 hrs immunoblot analysis; assay type: cell-based
MCF7 [23] = experiment: Induction of DNA double strand breaks in human MCF7 cells assessed as activation of phosphorylated ATM at ser1981 residue after 24 hrs immunoblot analysis; assay type: cell-based
MCF7 [24] = experiment: Induction of DNA double strand breaks in human MCF7 cells assessed as activation of phosphorylated Chk2 at Thr68 residue after 24 hrs immunoblot analysis; assay type: cell-based
MCF7 [25] = experiment: Induction of DNA damage-mediated apoptosis in human MCF7 cells assessed as increase in Bax/Bcl2 ratio after 24 hrs by immunoblot analysis; assay type: cell-based
MCF7 [26] = experiment: Induction of DNA damage-mediated apoptosis in human MCF7 cells assessed as cleavage of caspase-3 after 24 hrs by immunoblot analysis; assay type: cell-based
MCF7 [27] = experiment: Induction of DNA damage-mediated apoptosis in human MCF7 cells assessed as cleaved PARP after 24 hrs by immunoblot analysis; assay type: cell-based
MCF7 [28] = experiment: Induction of DNA damage-mediated apoptosis in human MCF7 cells assessed as activation of ERK1/2 at 12 nM up to 6 hrs by immunoblot analysis; assay type: cell-based
MCF7 [29] = experiment: Induction of DNA damage-mediated apoptosis in human MCF7 cells assessed as activation of p38 at 12 nM up to 4 hrs by immunoblot analysis; assay type: cell-based
MCF7 [30] = experiment: Induction of DNA damage-mediated apoptosis in human MCF7 cells assessed as deactivation of Akt at 12 nM after 2 hrs by immunoblot analysis; assay type: cell-based
MCF7 [31] = experiment: Induction of DNA damage-mediated apoptosis in human MCF7 cells assessed as increase in E2F1 expression in nuclear fraction after 24 hrs by immunoblot analysis; assay type: cell-based
MCF7 [32] = experiment: Induction of DNA damage-mediated apoptosis in human MCF7 cells assessed as decrease in HDAC1 levels in nuclear fraction at 8 to 16 nM after 24 hrs by immunoblot analysis; assay type: cell-based
MCF7 [33] = experiment: Induction of DNA damage-mediated apoptosis in human MCF7 cells assessed as decrease in HDAC1 expression in cytoplasmic fraction at 8 to 16 nM after 24 hrs by immunoblot analysis; assay type: cell-based
MCF7 [34] = experiment: Induction of DNA damage-mediated apoptosis in human MCF7 cells assessed as decrease in HDAC2 expression in cytoplasmic fraction at 8 to 16 nM after 24 hrs by immunoblot analysis; assay type: cell-based
MCF7 [35] = experiment: Antiproliferative activity against human MCF7 cells assessed as effect on cellular morphology after 24 hrs by phase contrast microscopic method; assay type: functional, cell-based
MCF7 [36] = experiment: Induction of DNA damage-mediated apoptosis in human MCF7 cells assessed as increase in cleaved caspase-3 level at 8 to 16 nM after 24 hrs by DAPI staining based immunocytochemistry analysis; assay type: cell-based
[37] = Cell cycle arrest in human MCF7 cells assessed as G0/G1 phase at 8 nM after 24 hrs by propidium iodide staining based FACS analysis (reference value: 43.9%); assay type: functional
[38] = Cell cycle arrest in human MCF7 cells assessed as S phase at 8 nM after 24 hrs by propidium iodide staining based FACS analysis (reference value: 27.5%); assay type: functional
[39] = Cell cycle arrest in human MCF7 cells assessed as G0/G1 phase at 12 nM after 24 hrs by propidium iodide staining based FACS analysis (reference value: 43.9%); assay type: functional
[40] = Cell cycle arrest in human MCF7 cells assessed as S phase at 12 nM after 24 hrs by propidium iodide staining based FACS analysis (reference value: 27.5%); assay type: functional

For `O=c1cc(OCc2ccccc2)c2ccc3ccccc3c2[nH]1`, the IC50 [1] was 12 nM, the “growth inhibition (GI)” value (MCF7 [2]) was “Dose-dependent effect” and the IC50 [3] was 23.7 nM. The IC50 [4] was 62.9 nM, the IC50 [5] was 44.1 nM and the IC50 [6] was 52100 nM. For the same molecule, the IC50 at 24 h [7] was > 100000 nM, the IC50 at 24 h [8] was > 100000 nM and the Activity (Bos taurus [9]) was “Active”. For the same molecule, the Activity (Bos taurus [10]) was “Active”, the Activity (MCF7 [11]) was “Active” and the Activity (MCF7 [12]) was “Dose-dependent effect”. For the same molecule, the Activity (MCF7 [13]) was “Dose-dependent effect”, the fold change (FC) (MCF7 [14]) was 6.3 and the fold change (FC) (MCF7 [15]) was 11. The Activity (MCF7 [16]) was “Dose-dependent effect”, the Activity (MCF7 [17]) was “Active” and the Activity (MCF7 [18]) was 10.9%. The Activity (MCF7 [19]) was 7.2%, the Activity (MCF7 [20]) was 39% and the Activity (MCF7 [21]) was 5.6%. For the same molecule, the Activity (MCF7 [22]) was “Dose-dependent effect”, the Activity (MCF7 [23]) was “Dose-dependent effect” and the Activity (MCF7 [24]) was “Dose-dependent effect”. The Activity (MCF7 [25]) was “Dose-dependent effect”, the Activity (MCF7 [26]) was “Dose-dependent effect” and the Activity (MCF7 [27]) was “Dose-dependent effect”. For the same molecule, the Activity (MCF7 [28]) was “Active”, the Activity (MCF7 [29]) was “Active” and the Activity (MCF7 [30]) was “Active”. The Activity (MCF7 [31]) was “Active”, the Activity (MCF7 [32]) was “Active” and the Activity (MCF7 [33]) was “Active”. The Activity (MCF7 [34]) was “Active”, the Activity (MCF7 [35]) was “Dose-dependent effect” and the Activity (MCF7 [36]) was “Active”. For the same molecule, the Activity [37] was 55.1%, the Activity [38] was 25.8% and the Activity [39] was 58.1%. For the same molecule, the Activity [40] was 25.1%.
